Measurements: patent US20260294874A1, “COMPOSITIONS COMPRISING MODULATORS OF RIBONUCLEOPROTEIN GRANULE FORMATION AND DISSOLUTION AND METHODS OF USE THEREOF” (University of Virginia Patent Foundation, priority 2023, published 2026)
Entries after “also recorded” stand apart in the source; their conditions may differ.

Experiments:
[1] = system: P-bodies (EDC4 foci) in HEK293T cells; test: Immunofluorescence phenotypic screen for P-bodies (α-EDC4) in glucose-deprived HEK293T cells; type: cell-based; conditions: glucose-deprived HEK293T cells, 25 μM, 2 h
Procedure: SuTEx compound treatments. Prior to treatments, cells were washed twice with warm phosphate-buffered saline (PBS) and exchanged with serum-free DMEM (supplemented with 1% L-glutamine) for at least 30 minutes at 37° C. with 5% CO2. Compounds were then added as 1000×DMSO stocks (10 μL for 10 cm dishes and 3 μL for 6-well dishes), plates were mixed gently, and cells were incubated for two hours. All compounds were thoroughly vortexed and sonicated for five minutes prior to addition to ensure complete solvation. For microscopy experiments, cultures were seeded at 150,000 cells in 3 mL of DMEM in 6-well THERMO SCIENTIFIC™ BIOLITE™ brand microwell plates (Catalog No. 12556004; Thermo Fisher Scientific Inc., Waltham, Massachusetts. United States of America). For collection, media was aspirated, and cells were washed once with cold PBS before scraping from plates. Cells were centrifuged at 500×g at 4° C. for 5 minutes and supernatant was removed. Cell pellets were resuspended in cold PBS (1 mL) and centrifuged at 1,400×g at 4° C. for 3 minutes. Supernatant was again removed, and pellets were then snap-frozen in liquid nitrogen and stored at −80° C. until needed.
Immunofluorescence. Immunofluorescence (IF) of HEK293T cells was performed as previously described in Ciancone et al., 2022. HeLa cells were seeded at 9.0×10^4 in a 24-well plate with 12-mm glass coverslips. The next day, the cells were treated with 25 μM SuTEx probe for 2 hours in DMEM medium without FBS. The cells were then treated with 75 μM NaAsO2 for 30 minutes and fixed with 3% paraformaldehyde in PBS for 15 minutes at room temperature (RT) and washed with PBS twice. The fixed cells were permeabilized with PBST (0.1% Triton X-100) for 15 minutes at room temperature and blocked with 5% goat serum in PBST for 30 minutes at RT. The cells were incubated with anti-G3BP1 antibody H-10 (Catalog No. sc-365338 at 1:200 dilution; Santa Cruz Biotechnology, Inc., Dallas, Texas, United States of America) for 2 hours at RT and washed with PBST (0.1% Tween-20) for 5 minutes three times. Next, cells were incubated with goat anti-mouse Alexa 594 antibody (Catalog No. 115-585-003 at 1:800 dilution; Jackson ImmunoResearch, West Grove, Pennsylvania, United States of America) for 30 minutes at RT. The cells were washed twice with PBST, stained with Hoechst 33342 (Catalog No. H3570 at […]; Thermo Fischer Scientific) in PBST for 5 minutes, and washed with PBS twice for 5 minutes. The coverslips were mounted in PROLONG™ Gold AntiFade Mountant (Catalog No. P36930, Thermo Fisher Scientific) and imaged using NIS Elements AR software and a Nikon Eclipse Ti microscope equipped with a ×100 objective and CMOS camera. […] A CellProfiler pipeline was developed to quantify the number of stress granules under each condition. Briefly, cells were recognized as blue^+ (nuclei) red^+ (G3BP1) objects, and the red^+ granules that meet the shape and size threshold were identified and counted. Cells on the border of linages were excluded from the analysis for more accurate quantification.
Data Analysis—Microscopy. All slides were blinded for imaging. Leica SP5X images were analyzed using Fiji (ImageJ). Custom macros were written for analysis and can be obtained upon request. To elaborate, images were split into channels based on the different laser wavelengths measured. Image stacks were then combined using ‘Z-Project’ with an average intensity parameter and a threshold was applied to exclude noise based on the negative control (no EDC4 antibody). The ‘Analyze Particles’ function was used with relevant size and circularity constraints (0.85-1.00) to count the number of foci, with total PBs having a diameter of >150 nm, and large PBs>450 nm. The number of foci was normalized to the number of cells (defined by a DAPI stain count) in each linage, and the number of foci per cell was averaged across technical replicates. Every sample had at least two technical replicates and two independent biological replicates. […]

[2] = Lipophilic efficiency calculation (cLogP from ChemDraw); conditions: from IC50 (AHL-030) or EC50 (HHS-166) and cLogP
Procedure: Lipophilic efficiency calculations for AHL-030 and HHS-166. Lipophilic efficiency was calculated as previously described in Leeson & Springthorpe, 2007 using IC50 (AHL-030) and EC50 (HHS-166) potency values from experiments and c Log P values from ChemDraw (Version 20.0.0.41 on a Windows PC): […]

[3] = system: G3BP1 WT-rescued G3BP KO cells; test: SG formation in G3BP KO U20S cells rescued with G3BP1 WT; type: cell-based; conditions: 2 h; for inhibition at 25 µM: G3BP1 WT-rescued G3BP KO U20S cells, read-out: reduction in SGs/cell; for effect on SG formation (in words): G3BP1 WT-rescued G3BP KO cells, 25 μM
Procedure: G3BP KO and rescue studies. U20S G3BP1/2 double knockout (G3BP KO) cell-line was a kind gift from the C. Brangwynne lab (Princeton University, Princeton, New Jersey, United States of America) and generated as previously described in Kedersha et al., 2016. G3BP KO cells were seeded at 9.0×10^4 in a 24-well plate with 12-mm glass coverslips. Next day, the cells were transfected with […] vectors with 1 μg/mL tetracycline and LIPOFECTAMINE™ 3000 brand transfection reagent according to the manufacturer's protocol (Thermo Fisher Scientific). 20 hours post-transfection, the cells were treated with 25 μM SuTEx probes for 2 hours in DMEM medium without FBS. The cells were then treated with 75 μM NaAsO2 for 30 minutes and fixed with 3% paraformaldehyde in PBS for 15 minutes at RT and washed with PBS twice. The same protocols for IF of HeLa cells and quantification of G3BP1-positive SGs described above were followed thereafter.
To determine whether the cell biological effects mediated by HHS-166 were Y40-dependent, we expressed recombinant G3BP1 WT or Y40 mutant in previously established G3BP1/2 double knockout U20S (G3BP KO) cells (Kedersha et al., 2016; Sanders et al., 2020) and evaluated the resulting effects on SG response to [COMPOUND LEFT OUT]. We compared SG response of G3BP KO cells expressing a G3BP1 Y40 covalent binding- and phospho-deficient mutant (Y40F) with a phosphomimetic counterpart (Y40E). G3BP KO cells were previously shown to be deficient in [COMPOUND LEFT OUT]-induced SG formation (Sanders et al., 2020). Expression of G3BP1 WT rescued this deficiency and restored cellular SG response to [COMPOUND LEFT OUT] [1.6 vs 11 SGs/cell in (−)[COMPOUND LEFT OUT] vs (+)[COMPOUND LEFT OUT], respectively; FIGS. 6A and 6B].

| SMILES | effect on PBs (in words) [1] | LipE (lipophilic efficiency) [2] | inhibition at 25 µM [3] | effect on SG formation (in words) [3] |
| --- | --- | --- | --- | --- |
| CC(C)c1cc(C(C)C)c(S(=O)(=O)n2cc(-c3ccc(C(F)(F)F)cc3)nn2)c(C(C)C)c1 [AHL-003] | block both types of RNP granules; also recorded: inhibited | – | – | – |
| COc1ccc(S(=O)(=O)n2cc(CS(C)(=O)=O)nn2)cc1 [AHL-030, 1-((4-Methoxyphenyl)sulfonyl)-4-((methylsulfonyl)methyl)-1H-1,2,3-triazole] | PB-inhibitory; also recorded: modestly inhibiting PBs; also recorded: decreased PBs | 7 | – | – |
| N#Cc1ccc(S(=O)(=O)n2cc(-c3cccc(Cl)c3)nn2)cc1 [EKT231, 4-((4-(3-Chlorophenyl)-1H-1,2,3-triazol-1-yl)sulfonyl)benzonitrile] | – | – | 9 to 13% | not observed; also recorded: inactive |
| COc1ccc(S(=O)(=O)n2cc(C3CCCCC3)nn2)cc1 [HHS-166, 4-Cyclohexyl-1-((4-methoxyphenyl)sulfonyl)-111-1,2,3-triazole] | – | 3 | 57% | statistically significant decrease in SGs; also recorded: blocked; also recorded: statistically significant decreases in SG formation |
